Read-outs that look alike come from different tables or passages of the source.
How the values were obtained:
Type in all cases: biochemical
NUAK2 = target: T1, NUAK2 (Homo sapiens, UniProt Q9H093); experiment: GST–NUAK2 Sakamototide peptide kinase assay; settings: for IC50: 200 μM Sakamototide, 100 μM [γ-32P]ATP; for Inhibition of NUAK2 (in words): results not shown
T1 construct: made in house; host or cells: HEK-293 cells, transient transfection of pEBG2T construct
T1 sequence (Q9H093 1-628): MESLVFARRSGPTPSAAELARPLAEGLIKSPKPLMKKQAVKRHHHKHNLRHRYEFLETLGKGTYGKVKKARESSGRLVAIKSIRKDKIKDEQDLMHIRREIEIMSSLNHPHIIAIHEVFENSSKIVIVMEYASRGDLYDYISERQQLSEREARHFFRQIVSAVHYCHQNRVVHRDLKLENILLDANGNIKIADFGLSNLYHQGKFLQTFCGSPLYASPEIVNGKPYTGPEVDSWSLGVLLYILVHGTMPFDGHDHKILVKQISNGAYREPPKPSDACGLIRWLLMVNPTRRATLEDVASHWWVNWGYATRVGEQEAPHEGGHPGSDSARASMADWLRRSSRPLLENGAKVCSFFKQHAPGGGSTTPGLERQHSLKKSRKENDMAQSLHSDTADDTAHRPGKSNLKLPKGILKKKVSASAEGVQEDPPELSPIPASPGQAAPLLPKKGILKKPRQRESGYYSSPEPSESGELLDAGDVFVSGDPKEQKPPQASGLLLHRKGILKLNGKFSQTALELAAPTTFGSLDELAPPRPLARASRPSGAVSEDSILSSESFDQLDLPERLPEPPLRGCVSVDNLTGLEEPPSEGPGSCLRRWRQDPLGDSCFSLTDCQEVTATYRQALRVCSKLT
Procedure: Active GST–NUAK1, GST–NUAK1[A195T] and GST–NUAK2 enzymes were purified using glutathione–Sepharose from HEK-293 cell lysates 36–48 h following the transient transfection of pEBG2T mammalian constructs expressing N-terminal GST-tagged NUAK1, NUAK1[A195T] or NUAK2. For peptide kinase assays, 96-well plates were used, and each reaction was performed in triplicate. Each reaction was set up in a total volume of 50 μl containing 100 ng of NUAK1 (wild-type or A195T mutant) or NUAK2 in 50 mM Tris/HCl (pH 7.5), 0.1 mM EGTA, 10 mM magnesium acetate, 200 μM Sakamototide, 0.1 mM [γ-^32P]ATP (450–500 c.p.m./pmol) and the indicated concentrations of inhibitors dissolved in DMSO. After incubation for 30 min at 30°C, reactions were terminated by adding 25 mM (final) EDTA to chelate the magnesium. Then, 40 μl of the reaction mix was spotted on to P81 paper and immersed in 50 mM orthophosphoric acid. Samples were washed three times in 50 mM orthophosphoric acid followed by a single acetone rinse and air drying. The incorporation of [γ-^32P]ATP into Sakamototide was quantified by Cerenkov counting. The values were expressed as a percentage of the DMSO control. IC50 curves were developed and IC50 values were calculated using GraphPad Prism software.

Aurora A = target: T2, Aurora A (Homo sapiens, UniProt O14965); experiment: Kinase profiling; settings: for Inhibition of Aurora A in profiling (in words; Aurora isoforms): 1 μM
T2 sequence (O14965 1-403): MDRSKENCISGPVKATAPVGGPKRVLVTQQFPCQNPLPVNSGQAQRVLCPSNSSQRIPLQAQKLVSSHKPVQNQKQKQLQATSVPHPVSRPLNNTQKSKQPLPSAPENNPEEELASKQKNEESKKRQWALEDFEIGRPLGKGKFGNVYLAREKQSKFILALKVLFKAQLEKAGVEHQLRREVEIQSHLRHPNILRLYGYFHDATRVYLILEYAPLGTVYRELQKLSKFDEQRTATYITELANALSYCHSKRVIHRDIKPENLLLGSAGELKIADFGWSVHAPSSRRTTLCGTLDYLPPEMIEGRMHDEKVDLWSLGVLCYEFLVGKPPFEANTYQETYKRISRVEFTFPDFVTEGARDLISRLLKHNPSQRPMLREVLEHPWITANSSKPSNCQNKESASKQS
Procedure: (§1) Kinase inhibitor specificity profiling assays were carried out at The International Centre for Protein Kinase Profiling (http://www.kinase-screen.mrc.ac.uk/) against a panel of 140 protein kinases as described previously. Results are presented as a percentage of kinase activity in DMSO control reactions. Protein kinases were assayed in vitro with 0.1 or 1 μM of the inhibitors and the results are presented as an average of triplicate reactions±S.D. or in the form of comparative histograms.

BRSK1 = target: T3, BRSK1 (Homo sapiens, UniProt Q8TDC3); experiment: Kinase profiling; settings: for BRSK1 activity, percentage of DMSO control: 0.1 or 1 μM inhibitor, mean of triplicate
T3 sequence (Q8TDC3 1-778): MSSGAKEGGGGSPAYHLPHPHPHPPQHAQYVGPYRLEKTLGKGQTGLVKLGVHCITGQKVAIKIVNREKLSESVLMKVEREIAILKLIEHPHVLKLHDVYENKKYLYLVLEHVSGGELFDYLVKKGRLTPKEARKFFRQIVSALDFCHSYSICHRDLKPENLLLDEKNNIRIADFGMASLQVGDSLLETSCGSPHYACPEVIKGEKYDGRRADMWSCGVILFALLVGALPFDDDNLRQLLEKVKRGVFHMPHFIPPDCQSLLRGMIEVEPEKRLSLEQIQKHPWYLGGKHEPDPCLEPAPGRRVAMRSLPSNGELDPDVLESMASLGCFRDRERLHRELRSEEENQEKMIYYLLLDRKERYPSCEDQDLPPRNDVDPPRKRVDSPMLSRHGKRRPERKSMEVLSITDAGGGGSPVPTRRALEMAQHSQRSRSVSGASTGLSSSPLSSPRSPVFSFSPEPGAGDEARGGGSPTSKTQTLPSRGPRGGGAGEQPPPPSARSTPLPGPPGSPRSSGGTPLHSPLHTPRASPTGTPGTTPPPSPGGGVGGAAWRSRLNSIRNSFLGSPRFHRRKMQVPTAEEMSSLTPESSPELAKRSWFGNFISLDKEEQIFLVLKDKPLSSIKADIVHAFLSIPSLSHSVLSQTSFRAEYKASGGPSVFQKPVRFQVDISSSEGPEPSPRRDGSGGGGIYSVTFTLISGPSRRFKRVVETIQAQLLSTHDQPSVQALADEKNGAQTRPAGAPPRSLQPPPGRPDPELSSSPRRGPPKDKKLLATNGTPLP
Procedure: as §1

ABL = ABL (Homo sapiens, UniProt P00519); experiment: Kinase profiling; settings: for ABL activity, percentage of DMSO control: 0.1 or 1 μM inhibitor, mean of triplicate; for Inhibition of ABL in profiling (in words): 1 μM
Chain of ABL (P00519 whole entry): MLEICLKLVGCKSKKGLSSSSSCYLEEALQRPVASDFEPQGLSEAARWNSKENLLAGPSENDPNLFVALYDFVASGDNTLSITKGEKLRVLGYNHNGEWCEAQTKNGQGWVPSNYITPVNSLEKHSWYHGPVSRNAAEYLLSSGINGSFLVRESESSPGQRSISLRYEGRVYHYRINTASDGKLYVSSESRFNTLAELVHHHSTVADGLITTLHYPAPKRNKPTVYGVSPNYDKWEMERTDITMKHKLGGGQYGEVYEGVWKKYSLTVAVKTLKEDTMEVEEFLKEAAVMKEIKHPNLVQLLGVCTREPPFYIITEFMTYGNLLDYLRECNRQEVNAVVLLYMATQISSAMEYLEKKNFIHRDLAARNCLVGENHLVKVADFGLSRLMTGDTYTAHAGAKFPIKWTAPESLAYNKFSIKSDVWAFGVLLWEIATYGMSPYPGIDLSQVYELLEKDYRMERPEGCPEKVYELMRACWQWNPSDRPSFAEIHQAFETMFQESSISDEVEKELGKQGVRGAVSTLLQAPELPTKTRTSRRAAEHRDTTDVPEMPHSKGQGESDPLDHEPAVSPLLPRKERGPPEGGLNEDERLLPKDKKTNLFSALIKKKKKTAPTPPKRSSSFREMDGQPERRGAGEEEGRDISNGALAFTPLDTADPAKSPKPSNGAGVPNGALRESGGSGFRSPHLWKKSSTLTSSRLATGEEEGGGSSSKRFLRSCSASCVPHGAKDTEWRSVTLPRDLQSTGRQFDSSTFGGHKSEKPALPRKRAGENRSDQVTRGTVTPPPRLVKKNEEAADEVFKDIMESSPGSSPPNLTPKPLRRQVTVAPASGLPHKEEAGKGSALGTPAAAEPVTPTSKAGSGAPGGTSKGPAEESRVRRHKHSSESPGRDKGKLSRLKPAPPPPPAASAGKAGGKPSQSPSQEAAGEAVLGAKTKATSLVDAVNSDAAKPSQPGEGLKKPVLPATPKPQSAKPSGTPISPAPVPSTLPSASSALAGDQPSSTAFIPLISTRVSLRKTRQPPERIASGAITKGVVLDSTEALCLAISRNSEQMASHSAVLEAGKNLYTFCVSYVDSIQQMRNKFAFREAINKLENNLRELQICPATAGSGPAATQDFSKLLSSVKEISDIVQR
Procedure: as §1

Aurora B = Aurora B (Homo sapiens, UniProt Q96GD4); experiment: Kinase profiling; settings: for Aurora B activity, percentage of DMSO control: 0.1 or 1 μM inhibitor, mean of triplicate; for Inhibition of Aurora B in profiling (in words; Aurora isoforms): 1 μM
Chain of Aurora B (Q96GD4 whole entry, canonical isoform): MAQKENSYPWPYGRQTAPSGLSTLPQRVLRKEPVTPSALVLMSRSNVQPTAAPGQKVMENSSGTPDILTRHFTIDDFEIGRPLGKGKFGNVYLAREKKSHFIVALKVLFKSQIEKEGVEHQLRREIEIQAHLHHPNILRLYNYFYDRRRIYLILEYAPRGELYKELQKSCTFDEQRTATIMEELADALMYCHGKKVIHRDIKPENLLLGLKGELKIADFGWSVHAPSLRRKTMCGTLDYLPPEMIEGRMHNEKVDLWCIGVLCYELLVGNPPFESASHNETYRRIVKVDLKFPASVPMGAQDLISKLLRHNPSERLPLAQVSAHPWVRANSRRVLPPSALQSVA
Procedure: as §1

JAK2 = JAK2 (Homo sapiens, UniProt O60674); experiment: Kinase profiling; settings: for JAK2 activity, percentage of DMSO control: 0.1 or 1 μM inhibitor, mean of triplicate; for Inhibition of JAK2 in profiling (in words): 1 μM
Chain of JAK2 (O60674 whole entry): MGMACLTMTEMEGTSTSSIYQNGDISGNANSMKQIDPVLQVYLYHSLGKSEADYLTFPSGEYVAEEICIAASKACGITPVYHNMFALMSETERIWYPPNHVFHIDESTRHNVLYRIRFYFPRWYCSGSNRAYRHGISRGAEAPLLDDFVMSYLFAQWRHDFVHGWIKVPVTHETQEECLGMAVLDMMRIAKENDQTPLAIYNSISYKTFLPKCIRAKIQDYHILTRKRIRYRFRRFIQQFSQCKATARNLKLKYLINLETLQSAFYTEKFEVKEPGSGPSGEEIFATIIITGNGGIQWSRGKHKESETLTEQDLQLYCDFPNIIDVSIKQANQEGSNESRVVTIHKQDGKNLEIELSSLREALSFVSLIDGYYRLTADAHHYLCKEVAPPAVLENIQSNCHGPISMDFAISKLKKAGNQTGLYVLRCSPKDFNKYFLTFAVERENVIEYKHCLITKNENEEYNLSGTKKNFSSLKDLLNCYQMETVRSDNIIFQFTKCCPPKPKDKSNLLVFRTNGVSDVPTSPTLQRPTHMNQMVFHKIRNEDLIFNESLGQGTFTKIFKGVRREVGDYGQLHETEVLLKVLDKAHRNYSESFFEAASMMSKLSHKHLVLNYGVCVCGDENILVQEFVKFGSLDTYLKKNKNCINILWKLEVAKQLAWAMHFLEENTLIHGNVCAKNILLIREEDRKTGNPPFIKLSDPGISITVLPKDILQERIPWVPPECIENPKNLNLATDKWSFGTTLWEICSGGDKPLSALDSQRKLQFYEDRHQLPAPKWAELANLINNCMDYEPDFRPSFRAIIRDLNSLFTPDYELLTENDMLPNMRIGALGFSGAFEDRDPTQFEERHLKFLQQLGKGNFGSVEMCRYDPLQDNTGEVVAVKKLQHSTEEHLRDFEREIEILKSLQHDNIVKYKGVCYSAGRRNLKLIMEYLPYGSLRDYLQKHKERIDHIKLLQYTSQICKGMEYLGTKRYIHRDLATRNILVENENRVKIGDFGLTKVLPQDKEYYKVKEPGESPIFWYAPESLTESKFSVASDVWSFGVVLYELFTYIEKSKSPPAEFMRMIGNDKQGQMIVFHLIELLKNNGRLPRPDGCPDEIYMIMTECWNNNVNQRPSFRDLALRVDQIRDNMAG
Procedure: as §1

Inhibition of NUAK2 (in words) (NUAK2)	Inhibition of Aurora A in profiling (in words; Aurora isoforms) (Aurora A)	Inhibition of BRSK1 in profiling (in words) (BRSK1; 1 μM)	Inhibition of ABL in profiling (in words) (ABL)	Inhibition of Aurora B in profiling (in words; Aurora isoforms) (Aurora B)	Inhibition of JAK2 in profiling (in words) (JAK2)	SMILES	IC50 (NUAK2; bound given in text, read-out: IC50 for NUAK2) [nM]	Higher potency for NUAK1 than NUAK2 (NUAK2; NUAK1 versus NUAK2) [fold]	Aurora A activity, percentage of DMSO control (Aurora A; 0.1 or 1 μM inhibitor, mean of triplicate) [percentage]	BRSK1 activity, percentage of DMSO control (BRSK1) [percentage]	ABL activity, percentage of DMSO control (ABL) [percentage]	Aurora B activity, percentage of DMSO control (Aurora B) [percentage]	JAK2 activity, percentage of DMSO control (JAK2) [percentage]	IC50 (NUAK2; read-out: IC50 for NUAK2 (wild-type GST–NUAK2)) [nM]
–	–	–	–	–	–	Cc1nc(Nc2cnn(C3CCNCC3)c2)nc2c1N(C)C(=O)c1cc3ccccc3cc1N2C [HTH-01-015]	> 10000	> 100	117	130	110	97	101	–
–	–	–	–	–	–	CCC(=O)Nc1cccc(Oc2nc(Nc3ccc(N4CCN(C)CC4)cc3OC)ncc2Cl)c1 [WZ4003]	–	–	–	91	104	72	65	100
Neither compound significantly inhibited	inhibited	inhibited	inhibited	inhibited	inhibited	CN1C(=O)c2ccccc2N(C)c2nc(Nc3cnn(C4CCNCC4)c3)ncc21 [XMD-17-51]	–	–	–	–	–	–	–	–
Neither compound significantly inhibited	inhibited	–	inhibited	inhibited	inhibited	CN1C(=O)c2cc3ccccc3cc2N(C)c2nc(Nc3cnn(C4CCNCC4)c3)ncc21 [XMD-18-42]	–	–	–	–	–	–	–	–

— paper PMC3969223, “Characterization of WZ4003 and HTH-01-015 as selective inhibitors of the LKB1-tumour-suppressor-activated NUAK kinases” (Biochemical Journal, 2013)
